Measured values as given in EP0293133A2, “Microorganisms and processes for the manufacture of antifungal tri-yne carbonates” (Merck & Co., Inc., priority 1987, dated 1988).
Where two headings read alike, the source gives them in different places.

Experiments:
Assay in all cases: agar dilution assay, antifungal activity (MIC)
Assay type in all cases: cell-based
A. flavus = conditions: Aspergillus flavus; A. flavus MF0383; spore inoculum, yeast nitrogen base plus glucose agar, 28°C, 48 hours; read-out: MINIMUM INHIBITORY CONCENTRATION
Protocol: (§1) The antifungal activity of the compound of formula I was determined by an agar dilution assay as follows: […]
(§2) The compound of formula I was added to cooled, molten yeast nitrogen base plus glucose agar (1.0 ml of drug plus 9.0 ml agar). Appropriate solvent and media controls (drug free) also were prepared. Prepared plates were stored in the dark at room temperature overnight prior to use.
(§3) The yeast cultures, maintained in yeast maltose (YM) broth, were transferred to fresh YM medium and incubated overnight at 37°C with shaking (250 rpm). After incubation, each culture was diluted in sterile saline to yield final concentrations of 3 x 10⁵ to 3 x 10⁶ colony forming units (CFU)/ml. The isolates of Aspergillus and Penicillium were maintained on potato dextrose agar slants and spore suspensions made following vigourous shaking with sterile glass beads. The spore preparations were used as the inocula for these three filamentous fungi.
(§4) Each prepared plate was inoculated with 21 yeast-like and filamentous fungi using a Denley Multipoint Inoculator (Denley, Sussex, England). The inoculator delivers approximately 0.001 ml to the agar surface resulting in inoculation of from 3 x 10² to 3 x 10³ CFUs. The plates were incubated at 28°C for 48 hours. The minimum inhibitory concentrations (MICs) were recorded as the lowest concentration of drug showing no growth or less than three CFU/spot.

Aspergillus fumigatus = Aspergillus fumigatus MF4839; spore inoculum, yeast nitrogen base plus glucose agar, 28°C, 48 hours; read-out: MINIMUM INHIBITORY CONCENTRATION
Protocol: as §1, §2, §3, §4

Ca. guilliermondii = conditions: Meyerozyma guilliermondii; Ca. guilliermondii MY1019; yeast nitrogen base plus glucose agar, 28°C, 48 hours; read-out: MINIMUM INHIBITORY CONCENTRATION
Protocol: as §1, §2, §3, §4

Ca. krusei = conditions: Pichia kudriavzevii; Ca. krusei MY1020; yeast nitrogen base plus glucose agar, 28°C, 48 hours; read-out: MINIMUM INHIBITORY CONCENTRATION
Protocol: as §1, §2, §3, §4

Ca. parapsilosis = conditions: Lodderomyces parapsilosis, 48 h, 28°C, read-out: MINIMUM INHIBITORY CONCENTRATION
Protocol: as §1, §2, §3, §4

Ca. pseudotropicallis = Ca. pseudotropicallis MY1040; yeast nitrogen base plus glucose agar, 28°C, 48 hours; read-out: MINIMUM INHIBITORY CONCENTRATION
Protocol: as §1, §2, §3, §4

Ca. rugosa = conditions: Diutina rugosa; Ca. rugosa MY1022; yeast nitrogen base plus glucose agar, 28°C, 48 hours; read-out: MINIMUM INHIBITORY CONCENTRATION
Protocol: as §1, §2, §3, §4

Ca. stellatoidea = conditions: Candida albicans; Ca. stellatoidea MY1018; yeast nitrogen base plus glucose agar, 28°C, 48 hours; read-out: MINIMUM INHIBITORY CONCENTRATION
Protocol: as §1, §2, §3, §4

Ca. tropicalis = conditions: Candida tropicalis, 48 h, 28°C, read-out: MINIMUM INHIBITORY CONCENTRATION
Protocol: as §1, §2, §3, §4

Candida albicans = conditions: 48 h, 28°C, read-out: MINIMUM INHIBITORY CONCENTRATION
Protocol: as §1, §2, §3, §4

Crypotococcus neoformans = conditions: yeast nitrogen base plus glucose agar, 28°C, 48 hours, read-out: MINIMUM INHIBITORY CONCENTRATION
Protocol: as §1, §2, §3, §4

Penicillium italicum = Penicillium italicum MF2819; spore inoculum, yeast nitrogen base plus glucose agar, 28°C, 48 hours; read-out: MINIMUM INHIBITORY CONCENTRATION
Protocol: as §1, §2, §3, §4

Sac. cerevisiae = conditions: Saccharomyces cerevisiae; Sac. cerevisiae MY1027; yeast nitrogen base plus glucose agar, 28°C, 48 hours; read-out: MINIMUM INHIBITORY CONCENTRATION
Protocol: as §1, §2, §3, §4

Torulopsis glabrata = conditions: Nakaseomyces glabratus; Torulopsis glabrata MY1059; yeast nitrogen base plus glucose agar, 28°C, 48 hours; read-out: MINIMUM INHIBITORY CONCENTRATION
Protocol: as §1, §2, §3, §4

SMILES: C#CC#CC#CC(O)C1OC(=O)OC1CCCCCCC(=O)O (stereo not drawn) [compound of formula I]
- MIC (A. flavus): > 30 µg/mL
- MIC (Aspergillus fumigatus): > 30 µg/mL
- MIC (Ca. guilliermondii): 7.5 µg/mL
- MIC (Ca. krusei): 30 µg/mL
- MIC (Ca. parapsilosis; Ca. parapsilosis MY1009, yeast nitrogen base plus glucose agar): 1.88 µg/mL
- MIC (Ca. parapsilosis; Ca. parapsilosis MY1010, yeast nitrogen base plus glucose agar): 0.47 µg/mL
- MIC (Ca. pseudotropicallis): 0.94 µg/mL
- MIC (Ca. rugosa): 7.5 µg/mL
- MIC (Ca. stellatoidea): 7.5 µg/mL
- MIC (Ca. tropicalis; Ca. tropicalis MY1011, yeast nitrogen base plus glucose agar): 15 µg/mL
- MIC (Ca. tropicalis; Ca. tropicalis MY1012, yeast nitrogen base plus glucose agar): 1.88 µg/mL
- MIC (Candida albicans; Ca. albicans MY0992, yeast nitrogen base plus glucose agar): 7.5 µg/mL
- MIC (Candida albicans; Ca. albicans MY1013, yeast nitrogen base plus glucose agar): 0.47 µg/mL
- MIC (Candida albicans; Ca. albicans MY1029, yeast nitrogen base plus glucose agar): 0.47 µg/mL
- MIC (Candida albicans; Ca. albicans MY1055, yeast nitrogen base plus glucose agar): 0.47 µg/mL
- MIC (Candida albicans; Candida albicans MY1058, yeast nitrogen base plus glucose agar): 0.47 µg/mL
- MIC (Crypotococcus neoformans; Cr. neoformans MY1146): 3.75 µg/mL
- MIC (Crypotococcus neoformans; Crypotococcus neoformans MY1051): 1.88 µg/mL
- MIC (Penicillium italicum): 7.5 µg/mL
- MIC (Sac. cerevisiae): 1.88 µg/mL
- MIC (Torulopsis glabrata): 1.88 µg/mL
